Test results reported in patent US6806370B2, “NK-1 receptor active amine oxide prodrugs” (Hoffmann-La Roche Inc., priority 2000, dated 2004).

Key:
Type in all cases: in vitro ADME
Details in all cases: 1 μg/mL, 37° C.
[1] = Conversion of prodrug to drug in plasma (human)
Experimental: (§1) The conversion of N-oxide prodrugs to the corresponding parent compounds is due to a reduction mechanism. […] The presence of an oxidant in the work-up solution should help preventing the reduction of the N-oxides.
(§2) Conversion in plasma: 10 μLs of a 100 μg/mL DMSO solution of the pro-drug were added to 1 mL plasma to reach a final concentration of 1 μg/mL. The incubation was performed at 37° C. and 8 aliquots were taken at different time points over 30 min. These aliquots were treated with 3 volumes of cold MeOH containing H2O2 (final concentration 10% v/v) and centrifuged at 3500 g for 20 min at 10° C. The supernatant was directly used to determine the drug levels by LC-MS-MS (HPLC chromatography on reversed phase column X-Terra MS C18 […] 2.1×30 mm Waters at 40° C., using a polarity gradient MeOH/Form.Ac.
(§3) 1% 20/80/MeOH; run time; 3.0 min; inj. Vol.: 10 μL; Flow: […] and MS/MS detection on a PE Sciex API-2000 MS/MS spectrometer; ion source: Turbospray; ionisation mode: ESP+).
(§4) Sample stability (plasma and blood): The final matrix were first prepared (plasma or blood treated with 3 volumes of cold MeOH containing H2O2—10% v/v—and centrifuged at 3500 g for 20 min at 10° C.) and then incubated at 37° C. into two tubes; the pro-drug or the drug were then incubated and finally their concentration determined by LC-MS-MS as described above.

[2] = Conversion of prodrug to drug in plasma (rat)
Experimental: as §1, §2, §3, §4

[3] = Conversion of prodrug to drug in plasma (dog)
Experimental: as §1, §2, §3, §4

t½ conversion prodrug to drug, Human plasma [1] [h] | t½ conversion prodrug to drug, Rat plasma [2] [h] | t½ conversion prodrug to drug, Dog plasma [3] [h] | SMILES
6 | 2 | 16 | Cc1ccccc1-c1cc([N+]2([O-])CCOCC2)ncc1C(=O)N(C)Cc1cc(C(F)(F)F)cc(C(F)(F)F)c1.O [Example 16, N-(3,5-Bis-trifluoromethyl-benzyl)-N-methyl-6-(4-oxy-morpholin-4-yl)-4-o-tolyl-nicotinamide monohydrate]
12 | 5 | 18 | CN(C(=O)C(C)(C)c1cc(C(F)(F)F)cc(C(F)(F)F)c1)c1cnc([N+]2([O-])CCOCC2)cc1-c1ccccc1Cl [Example 2, 2-(3,5-Bis-trifluoromethyl-phenyl)-N-[4-(2-chloro-phenyl)-6-(4-oxy-morpholin-4-yl)-pyridin-3-yl]-N-methyl-isobutyramide]

SMILES | t½ conversion prodrug to drug, Human plasma [1] [h] | t½ conversion prodrug to drug, Rat plasma [2] [h] | t½ conversion prodrug to drug, Dog plasma [3] [h]
Cc1ccccc1-c1cc([N+]2([O-])CCOCC2)ncc1N(C)C(=O)C(C)(C)c1cc(C(F)(F)F)cc(C(F)(F)F)c1 [Example 1, 2-(3,5-Bis-trifluoromethyl-phenyl)-N-methyl-N-[6-(4-oxy-morpholin-4-yl)-4-o-tolyl-pyridin-3-yl]-isobutyramide] | 8 | 4 | 18
